The text below walks through data of article PMC7744439 (European journal of medicinal chemistry, 2020).

The subject of data set [1] is primary cortical neurons. The following applies: cited from earlier work; for neuroprotection: at 10 μM.
In data set [2] the target is T1, HDAC6 (Homo sapiens, UniProt Q9UBN7).
T1 sequence (Q9UBN7 1-1215): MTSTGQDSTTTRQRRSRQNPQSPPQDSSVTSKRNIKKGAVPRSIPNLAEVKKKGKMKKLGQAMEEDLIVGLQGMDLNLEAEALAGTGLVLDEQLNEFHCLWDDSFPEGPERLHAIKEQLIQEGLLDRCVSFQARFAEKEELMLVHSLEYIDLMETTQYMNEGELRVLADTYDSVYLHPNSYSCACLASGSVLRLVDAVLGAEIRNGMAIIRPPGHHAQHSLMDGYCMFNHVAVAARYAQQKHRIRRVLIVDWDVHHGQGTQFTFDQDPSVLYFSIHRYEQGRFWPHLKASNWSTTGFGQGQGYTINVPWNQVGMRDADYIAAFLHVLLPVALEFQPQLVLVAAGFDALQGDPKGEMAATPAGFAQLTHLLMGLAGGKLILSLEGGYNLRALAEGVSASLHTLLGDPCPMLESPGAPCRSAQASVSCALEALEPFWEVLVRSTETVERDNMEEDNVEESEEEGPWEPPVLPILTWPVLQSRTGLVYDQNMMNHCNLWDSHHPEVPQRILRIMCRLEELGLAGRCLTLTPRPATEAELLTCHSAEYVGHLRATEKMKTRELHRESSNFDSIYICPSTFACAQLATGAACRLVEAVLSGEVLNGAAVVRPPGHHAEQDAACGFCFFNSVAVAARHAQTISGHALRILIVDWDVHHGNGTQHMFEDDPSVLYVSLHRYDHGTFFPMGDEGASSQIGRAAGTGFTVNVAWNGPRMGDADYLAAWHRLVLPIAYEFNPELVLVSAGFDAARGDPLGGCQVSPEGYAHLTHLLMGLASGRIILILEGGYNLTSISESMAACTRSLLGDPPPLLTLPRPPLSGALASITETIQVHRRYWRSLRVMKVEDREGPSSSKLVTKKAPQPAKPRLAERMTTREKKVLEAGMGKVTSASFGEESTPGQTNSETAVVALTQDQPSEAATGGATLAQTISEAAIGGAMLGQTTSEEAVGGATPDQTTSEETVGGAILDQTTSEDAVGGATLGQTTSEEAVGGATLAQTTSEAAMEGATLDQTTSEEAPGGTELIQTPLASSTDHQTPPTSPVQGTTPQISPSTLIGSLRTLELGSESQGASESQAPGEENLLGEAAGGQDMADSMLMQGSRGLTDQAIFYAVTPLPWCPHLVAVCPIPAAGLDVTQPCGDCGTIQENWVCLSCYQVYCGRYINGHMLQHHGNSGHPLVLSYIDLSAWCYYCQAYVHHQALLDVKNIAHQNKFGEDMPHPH
The following applies: read-out: HDAC6 IC50, cited from earlier work.

The target in the next data set is T2, HDAC8 (Homo sapiens, UniProt Q9BY41).
T2 sequence (Q9BY41 1-377): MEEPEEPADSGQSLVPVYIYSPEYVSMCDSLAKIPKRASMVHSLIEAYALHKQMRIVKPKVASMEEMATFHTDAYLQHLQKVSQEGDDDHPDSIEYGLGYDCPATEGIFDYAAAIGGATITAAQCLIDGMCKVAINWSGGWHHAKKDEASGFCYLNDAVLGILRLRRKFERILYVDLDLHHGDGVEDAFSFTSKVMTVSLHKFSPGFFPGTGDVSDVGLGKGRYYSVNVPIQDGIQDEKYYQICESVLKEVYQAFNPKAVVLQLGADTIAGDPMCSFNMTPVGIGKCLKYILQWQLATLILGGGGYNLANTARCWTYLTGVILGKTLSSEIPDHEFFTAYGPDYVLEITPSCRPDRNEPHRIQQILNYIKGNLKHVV
The following applies: read-out: HDAC8 IC50; cited from earlier work.

The next data set deals with HDAC2 (Homo sapiens, UniProt Q92769). Kind of data set: HDAC2 enzymatic inhibition. The format is biochemical.
In another data set the target is HDAC1 (Homo sapiens, UniProt Q13547). Kind of data set: HDAC1 enzymatic inhibition. The format is biochemical.
The target of data set [3] is T1, HDAC6. Briefly: HDAC6 enzymatic inhibition. The format is biochemical.
For data set [4], the system named is Ac-H4 in spleen, brain and liver. Particulars: 0.5 to 400 mg/kg, after 4 h treatment, dose-dependent; cited from earlier work.
For another data set, the system named is Caco-2 cells. Particulars: cited from earlier work; for permeability classification: moderately permeable = 2 × 10^−6 cm/s < Papp(A–B) < 20 × 10^−6 cm/s.
Data set [5] deals with prostate cancer cells (PC-3 and LNCap). The following applies: cited from earlier work.
For data set [6] the following is noted: IP, cited from earlier work; for behavior of the mice: 0.5 to 400 mg/kg.
The next data set deals with total HDACs. The following applies: read-out: Total HDAC (IC50); cited from earlier work.
A further data set concerns PC-3 tumors. Particulars: cited from earlier work; for tumor growth: IP, 28 days, 0.5 mg/kg; for mortality or body-weight loss: during the treatment, 0.5 mg/kg IP.
The subject of data set [7] is nonmalignant cells (267-B1 and RWPE-1). The following applies: cited from earlier work.
For data set [8] the following is noted: mice, 400 mg/kg, IP, plasma; cited from earlier work.
Data set [9] has as its system N2a cells overexpressing hAPP. Particulars: 5 μM, 24 h; cited from earlier work.
Data set [10] relates to primary cortical neurons. Particulars: 5 μM, 24 h; cited from earlier work.
A further data set deals with hAPP 3 × Tg mice. The following applies: 50 mg/kg, IP, four weeks, cited from earlier work.
The next data set concerns dendritic spine density. Particulars: 50 mg/kg, IP; cited from earlier work.
Data set [11] concerns monomorphic malignant human glioma cells (A172, U373MG, and T98G). Particulars: cited from earlier work.

Like-named read-outs stand apart in the source and are kept apart here. Some results are limits rather than exact numbers.

HDAC2, sequence (Q92769 whole entry, species assumed): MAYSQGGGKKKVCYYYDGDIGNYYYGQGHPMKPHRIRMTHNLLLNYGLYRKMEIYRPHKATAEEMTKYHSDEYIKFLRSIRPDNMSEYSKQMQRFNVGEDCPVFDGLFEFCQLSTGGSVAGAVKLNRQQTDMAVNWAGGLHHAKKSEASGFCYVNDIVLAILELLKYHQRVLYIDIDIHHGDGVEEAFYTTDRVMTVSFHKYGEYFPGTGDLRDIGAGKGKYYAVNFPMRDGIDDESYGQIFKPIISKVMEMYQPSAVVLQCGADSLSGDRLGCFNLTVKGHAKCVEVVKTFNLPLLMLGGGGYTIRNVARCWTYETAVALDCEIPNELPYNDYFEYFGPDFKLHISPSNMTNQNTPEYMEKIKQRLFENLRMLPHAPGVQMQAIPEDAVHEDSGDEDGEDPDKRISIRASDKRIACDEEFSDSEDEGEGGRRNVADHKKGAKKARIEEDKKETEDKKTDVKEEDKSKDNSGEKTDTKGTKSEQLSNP
HDAC1, sequence (Q13547 whole entry, species assumed): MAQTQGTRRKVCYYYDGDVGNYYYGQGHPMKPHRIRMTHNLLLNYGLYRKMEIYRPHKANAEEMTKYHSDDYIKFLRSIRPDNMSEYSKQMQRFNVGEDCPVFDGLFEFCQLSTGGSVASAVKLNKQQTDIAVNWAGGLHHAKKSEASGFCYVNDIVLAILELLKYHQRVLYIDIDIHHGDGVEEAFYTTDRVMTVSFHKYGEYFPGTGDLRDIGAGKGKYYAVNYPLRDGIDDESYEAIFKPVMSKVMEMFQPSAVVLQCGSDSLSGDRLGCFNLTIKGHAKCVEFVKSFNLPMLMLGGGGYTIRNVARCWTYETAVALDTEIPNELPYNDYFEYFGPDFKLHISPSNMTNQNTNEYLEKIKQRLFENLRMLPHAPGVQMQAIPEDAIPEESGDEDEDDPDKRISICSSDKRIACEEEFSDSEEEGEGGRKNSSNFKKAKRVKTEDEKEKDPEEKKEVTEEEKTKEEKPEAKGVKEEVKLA

Regarding `Cc1onc(-c2ccccc2)c1C(=O)NCCCCCNC(=O)[C@H](C)S` [Compound 37], in the data set with primary cortical neurons [1], the “prevention of glutathione depletion” value is “ability to prevent glutathione depletion”.
In the case of `Cc1noc(-c2ccccc2)c1C#CCCCCCNC(=O)C(C)S` (stereo not drawn) [Compound 49], the neuroprotection result with primary cortical neurons [1] was “neuroprotective effects”.
Regarding `Cc1onc(-c2ccccc2)c1COCCCCCNC(=O)[C@H](C)S` [Compound 41], the “prevention of glutathione depletion” value in the data set with primary cortical neurons [1] was “ability to prevent glutathione depletion”.
As for `Cc1noc(-c2cccc(F)c2)c1C#CCCCCCNC(=O)C(C)S` (stereo not drawn) [Compound 50], the neuroprotection entry in the data set with primary cortical neurons [1] is recorded as “neuroprotective effects”.
What is called IC50 is the concentration that inhibits the measured activity by half. `O=C(NO)c1ccccc1` [phenylhydroxamate, reference compound]: the IC50 on HDAC6 [2] is 115 nM; on HDAC8, 1900 nM.
On to `O=C(CS)NCCCCCC(=O)Nc1ccccc1` [Compound 11], for which the figures for the IC50 at HDAC2, against HDAC1 and against HDAC6 [3] were greater than 30000 nM, 3760 nM and 340 nM, respectively. For the same molecule, the “SI, HDAC1/6 selectivity index” value on HDAC6 [3] (HDAC1/HDAC6, text prints -folds) worked out at 11.1.
For `CN(C)c1ccc(C(=O)NCCCCCNC(=O)CS)cc1` [Compound 20], the “Ac-H4 levels in the spleen” value in data set [4] is listed as “significantly increased”. In addition, the permeability classification entry in the data set with Caco-2 cells is listed as “moderately permeable”. In addition, the anti-proliferative effects entry in data set [5] is “low-micromolar levels of anti-proliferative effects”. The “behavior of the mice” value in data set [6] is given as “remain normal”. For the same molecule, the half-inhibitory concentration (IC50) in the data set with total HDACs was 200 nM. Besides, the 50% inhibitory concentration (IC50) on HDAC6 [2] (Table 1) is 110 nM. Besides, in the data set on PC-3 tumors, the tumor growth entry is on record as “significant inhibition on the tumor growth” and the “mortality or body-weight loss” value is recorded as “no mortality or body-weight loss”. For the same molecule, in data set [7], the “inhibitory effects on nonmalignant cells” value is on record as “no apparent inhibitory effects”. Further, the CL in [8] was 4.87 ± 0.2 L/h.
As for `Cc1onc(-c2ccccc2)c1C=CCCCCCNC(=O)C(C)S` (stereo not drawn) [Compound 45], the neuroprotection result in the data set with primary cortical neurons [1] is given as “neuroprotective effects”.
`O=C(CS)NCCCCCn1ccc2cc(Cl)c(Cl)cc21` [Compound 74] showed a half-inhibitory concentration (IC50) against HDAC1 greater than 30000 nM. For the same molecule, on HDAC6 [3], the IC50 came to 2330 nM and the “SI, HDAC1/6 selectivity index” value is recorded as greater than 12.8.
Take `Cc1onc(-c2ccccc2)c1C(=O)NCCCCCNC(=O)CS` [Compound 34]: the neuroprotection result in the data set with primary cortical neurons [1] is listed as “full neuroprotection”.
`O=C(CS)NCCCCCC(=O)Nc1cccc2cccnc12` [Compound 63]: the “increase of cell surface APP” value in data set [9] is reported as “two-fold”. Moreover, in data set [4], the “Ac-H4 levels in the spleen” value was “significantly increased”. The “increase of cell surface APP” value in the data set with primary cortical neurons [10] is listed as “two-fold”. Besides, in the data set with Caco-2 cells, the “transporters responsible for the efflux” value is “P-glycoprotein (P-gp) and multidrug resistance-associated protein 1 (MRP1)”; the permeability classification entry is given as “moderately permeable”. Besides, the anti-proliferative effects result in data set [5] is on record as “low-micromolar levels of anti-proliferative effects”. Besides, the “time to full recovery” value in data set [6] (400 mg/kg) is recorded as no more than 1 h. For the same molecule, the “behavior of the mice” value in [6] is given as “incapacitated 15 min after treating”. In addition, in the data set on hAPP 3 × Tg mice, the Aβ levels result was “decreased” and the “phosphorylated tau (Thr181) levels” value is reported as “decreased”. Moreover, the “learning and memory deficits” value with hAPP 3 × Tg mice (aged mice (9-10-month-old)) is “alleviated the learning and memory deficits”. For the same molecule, in the data set with total HDACs, the IC50 was 40 nM. Besides, the dendritic spine density result in the data set on dendritic spine density is “promotes dendritic spine density”. In addition, on HDAC6 [2] (Table 3), the IC50 was 90 nM. Moreover, in the data set on PC-3 tumors, the tumor growth entry is on record as “significant inhibition on the tumor growth” and the “mortality or body-weight loss” value was “no mortality or body-weight loss”. In [11] (A172 and U373MG cells), the “levels of Ac-H3” value is “without influence” and the “levels of Ac-Tub” value was “significantly enhanced”. The “cell migration and invasion” value in data set [11] (A172 cells) was “reduced cell migration and invasion”. The “phosphorylation of FAK/STAT3” value in [11] is on record as “suppress the phosphorylation of FAK/STAT3”. Besides, the “cytotoxicity in glioma cells” value in data set [11] (concentrations up to 50 μM) is listed as “did not show cytotoxicity”. Besides, the “inhibitory effects on nonmalignant cells” value in [7] is on record as “no apparent inhibitory effects”. In addition, the CL in [8] is reported as 4.05 ± 0.15 L/h.
